Holding throughout (type): physicochemical
A short description of data set [1]: Laser photothermal heating of a solution (temperature change by thermocouple). Conditions: for ΔT (temperature change during laser irradiation): 780 nm. From the text:
This example describes a method of using compound 1 to increase the temperature of a solution. […] An Omega hypodermic thermocouple (HYPO-33-1-T-G-60-SMPW-M) was placed in the solution and the temperature measured using the associated USB converter. The Ti:Sapphire laser beam was aligned to pass through the solution (above the stirrer and avoiding close contact with the thermocouple) in an identical manner in every experiment. The laser wavelength was set at 780 and the power controlled to be 250 mW during all of the experiments, with a beam diameter of 0.3 cm.
[…] An Omega hypodermic thermocouple (HYPO-33-1-T-G-60-SMPW-M) was placed in the solution and the temperature measured using the associated USB converter. The Ti:Sapphire laser beam was aligned to pass through the solution (above the stirrer and avoiding close contact with the thermocouple) in an identical manner in every experiment. The laser wavelength was set at 780 or 808 nm and the power controlled to be 250 mW during all of the experiments, with a beam diameter of 0.3 cm.

A short description of data set [2]: Photobleaching / photostability under near-infrared laser irradiation. Conditions: 4:1 MeOH/H2O; for Heating effect during extended near-infrared irradiation: 780 nm, 250 mW, 15 minute, 1.67 μg/mL croconaine 1, 2.00 μg/mL ICG, FIG. 13; for Change in absorbance after laser irradiation: FIGS. 14 and 15. On the procedure: These experiments were conducted in 4:1 MeOH/H2O, with 1.67 μg/mL of croconaine 1 and 2.00 μg/mL of ICG respectively. This difference in compound photobleaching was confirmed with studies that looked at changes in the compound absorption signal.

Data set [3] is described as follows: Absorbance of solutions in 4:1 MeOH/H2O. Conditions: 780 nm.
Where [4] appears, read: 810 nm, 900 s, 260 mW, 0.005 mg/mL.

Molecules are shown by their SMILES.

Take `C#CCOCCN(Cc1ccccc1)c1ccc(C2=C([O-])/C(=C3C=C/C(=[N+](\CCOCC#C)Cc4ccccc4)S\3)C(=O)C2=O)s1` [Compound 2]: the “Ability to increase the temperature of a solution” value in data set [1] (2.0 or 50.0 μg/mL, 4:1 MeOH/H2O, 780 or 808 nm, 250 mW) is reported as “same ability as compound 1”.

As for `CC1(C)C(/C=C/C=C/C=C/C=C2\N(CCCCS(=O)(=O)O)c3ccc4ccccc4c3C2(C)C)=[N+](CCCCS(=O)(=O)[O-])c2ccc3ccccc3c21` [ICG, indocyanine green], the “Heating effect during extended near-infrared irradiation” value in data set [2] is reported as “loss of heating effect due to photobleaching”. Also, the “Decrease in the absorbance after laser irradiation” value in data set [2] (810 nm, 900 s, 260 mW, 0.005 mg/mL, FIG. 15) is approximately 50%. In data set [2] (setting [4]), the “Change in absorbance after laser irradiation” value is listed as “drop”.

With `C#CCOCCN(CC)c1ccc(C2=C([O-])/C(=C3C=C/C(=[N+](/CC)CCOCC#C)S\3)C(=O)C2=O)s1` [Compound 1], the “A (absorbance value)” value is given as 0.04 in data set [3] (0.10 μg/mL); 0.11 in data set [3] (0.25 μg/mL); 0.22 in data set [3] (0.50 μg/mL); 0.46 in data set [3] (1.00 μg/mL); 0.73 in data set [3] (1.67 μg/mL); 1.13 in data set [3] (2.50 μg/mL). For the same compound, the “A (absorbance value)” value is listed as 2.24 in data set [3] (5.00 μg/mL) and ~22.4 (est) in data set [3] (50.0 μg/mL, estimated). In addition, the “Concentration dependence of absorbance” value in data set [3] (FIGS. 8 and 9) is recorded as “obeys the Beer-Lambert Law”. The “ΔT (temperature change during laser irradiation)” value in data set [1] (0.10 μg/mL, 4:1 MeOH/H2O, 250 mW) was found to be 0.1 °C; in data set [1] (0.25 μg/mL, 4:1 MeOH/H2O, 250 mW) it was 2.0 °C; in data set [1] (0.50 μg/mL, 4:1 MeOH/H2O, 250 mW), 3.4 °C; in data set [1] (1.00 μg/mL, 4:1 MeOH/H2O, 250 mW) it was 7.2 °C; in data set [1] (1.67 μg/mL, 4:1 MeOH/H2O, 250 mW), 9.8 °C; in data set [1] (2.50 μg/mL, 4:1 MeOH/H2O, 250 mW), 10.4 °C. In addition, the “ΔT (temperature change during laser irradiation)” value worked out at 11.0 °C in data set [1] (5.00 μg/mL, 4:1 MeOH/H2O, 250 mW) and 11.3 °C in data set [1] (50.0 μg/mL, 4:1 MeOH/H2O, 250 mW). In addition, in data set [1] (4:1 MeOH/H2O, 0.05 mg/mL for laser experiments, FIG. 12), the “Heating on laser irradiation at different wavelengths” value is on record as “proportional to the amount of light absorbed”. The “Dependence of heating on absorbance” value in data set [1] (780 nm laser light, Table 1, FIGS. 10 and 11) is “linear with absorbance from about A=0 until about A=1”. For the same compound, the “Heating effect during extended near-infrared irradiation” value in data set [2] is “no heating effect loss”. The “Change in absorbance after laser irradiation” value in data set [2] (setting [4]) was “no change”.
